The target of one experiment is T1, human S1P1 (Homo sapiens, UniProt P21453).
T1 construct: expressed in transfected cells; membrane fraction used
Nature of the experiment: GTP[γ-35S] bond assay using the membrane of a human S1P1 expressing cell (S1P1 agonist activity). It counts as biochemical. As to conditions: membrane of human S1P1 expressing CHO cell; concentration causing 50% of the maximum GTP[γ-35S] reaction. The protocol:
1) Evaluation of a Receptor Agonist Activity by a GTP[γ-^35S] Bond Assay Using the Membrane of a Human S1P1 Expressing Cell
The in vitro S1P1 agonist activity of the compound of the present invention was evaluated by the increase in the functional bonding activity into the G-Protein of a GTP[γ-^35S] using the membrane of a human S1P1 expressing cell. A cDNA encoding a human S1P1 was cloned from a human colorectal cDNA library, and introduced to an expression vector pcDNA3.1 to construct a S1P1-pcDNA3.1. Then, by Lipofectamine 2000 (GIBCO), the S1P1-pcDNA3.1 was transfected into a CHO cell, and cultured in a Ham's F-12 culture medium containing 10% fetal bovine serum, 100 U/mL Penicillin, 100 μg/mL Streptomycin, and 1 mg/mL G418 disulfate, to obtain a stable, G418-resistant strain. The cultured human S1P1 expressing cells were isolated in a 1 mM EDTA/2Na-containing PBS, and disrupted under ice-cooling by a homogenizer made of glass in a 1 mM Tris HCl (pH 7.4) buffer solution containing 0.1 mM EDTA and a […]. It was centrifuged at […], and a supernatant was further centrifuged at 4° C. for 60 min at 100,000×g, and suspended in a 10 mM Tris HCl (pH 7.4) buffer solution containing 1 mM EDTA. The obtained membrane (0.13 mg/mL) and […] GTP[γ-^35S] […] The FilterMate was dried at 50° C. for 60 min, and Microscinti-o (Packard) was added thereto for measurement by a liquids scintillation counter for a microplate (Packard, TOP count). For evaluation of the human S1P1 agonist activity of the compound of the present invention and the comparative compound, the percentages with the rate of a maximum reaction to make the GTP[γ-^35S] bonds saturated in the presence of the compound being set at 100%, and the rate of the reaction of the GTP[γ-^35S] bonds in the absence of the compound being set at 0% was used, a non-linear regression curve was plotted, and a concentration to cause an agonist activity operating 50% of the maximum reaction was defined as an EC50 value (nM).

Experiment [1] deals with number of the lymphocytes in peripheral blood. Nature of the experiment: Evaluation of peripheral blood lymphopenia in rat. It counts as in vivo. As to conditions: for ED50: Rattus norvegicus, Lymphocyte, male Lewis rats, oral administration, 50% reduction of the number of lymphocytes in peripheral blood at 24 hours after administration, read-out: ED50 value after 24 hours; for ED50 value after 24 hours, conclusion in words (persistence): rat peripheral blood lymphopenia, 24 hours after oral administration. The protocol: 2) Evaluation of Peripheral Blood Lymphopenia in Rat
The peripheral blood lymphopenia in rat was measured at 24 hours after oral administration in the following manner. Six- to ten-week-old male Lewis rats (Japan Charles river laboratories) were randomly divided into the groups (n=3), and the compound of the present invention was suspended in 0.5% methyl cellulose-containing distilled water, and orally administered with a sonde. At 24 hours after administration, under ether anesthesia, 0.2 ml of blood was collected from ocular fundus. To the blood sample were immediately added EDTA/4K and heparin to prevent clotting, and the number of the lymphocytes in blood was measured with an automatic haematology analyzer (Sysmex Corp.; XT-2000i). For the reduction of the number of the lymphocytes in peripheral blood by the compound of the present invention, the percentage with the number of the lymphocytes in groups administered with 0.5% methyl cellulose-containing distilled water being set at 100%, as performed at the same time was used, and the dose to cause 50% reduction of the number of the lymphocytes in peripheral blood by administration of the compound of the present invention was defined an ED50 value (mg/kg).

The structures appear in SMILES notation.

These results are taken from patent US7678820B2, “Hetero compound” (Astellas Pharma Inc., priority 2006, dated 2010).

T1 sequence (P21453 whole entry): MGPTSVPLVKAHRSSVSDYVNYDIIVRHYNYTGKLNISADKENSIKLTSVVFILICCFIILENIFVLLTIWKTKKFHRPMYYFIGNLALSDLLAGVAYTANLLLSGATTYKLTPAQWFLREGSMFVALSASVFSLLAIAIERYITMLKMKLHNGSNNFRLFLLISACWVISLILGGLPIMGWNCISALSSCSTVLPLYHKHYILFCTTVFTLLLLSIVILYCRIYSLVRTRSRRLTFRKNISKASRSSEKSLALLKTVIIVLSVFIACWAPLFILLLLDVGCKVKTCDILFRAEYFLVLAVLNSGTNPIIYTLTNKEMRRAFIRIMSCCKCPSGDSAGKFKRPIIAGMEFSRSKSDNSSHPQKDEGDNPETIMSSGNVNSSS

Broadly, the EC50 is the concentration that produces a half-maximal response. Read a high EC50 as a less potent agent. The ED50 is the dose that gives a 50% effect, or the effect in half of the subjects. Regarding `C[C@H](Oc1ccc(-c2nc(-c3ccc4[nH]cnc4c3)no2)cc1Cl)C(F)(F)F.Cl` [Ex 199], at human S1P1, the midpoint of the response, the EC50, lay at 5 nM. Moreover, in experiment [1], the ED50 was found to be 0.26 mg/kg and the “ED50 value after 24 hours, conclusion in words (persistence)” value was “high ED50 value even after 24 hours, indicating persistence”.
Take `C[C@H](Oc1ccc(-c2nc(-c3ccc4[nH]cnc4c3)no2)cc1C(F)(F)F)C(F)(F)F.Cl` [Ex 119]: the EC50 at human S1P1 is 4.3 nM. Further, in experiment [1], the ED50 was found to be 0.071 mg/kg and the “ED50 value after 24 hours, conclusion in words (persistence)” value was “high ED50 value even after 24 hours, indicating persistence”.
